Literature values, collected in patent US6750247B2, “Sponge-derived terpenoids and methods of use” (Galileo Laboratories, Inc., priority 2001, dated 2004).

Molecular target: T1, lipoxygenase (Homo sapiens, UniProt P09917)
T1 sequence (P09917 1-674): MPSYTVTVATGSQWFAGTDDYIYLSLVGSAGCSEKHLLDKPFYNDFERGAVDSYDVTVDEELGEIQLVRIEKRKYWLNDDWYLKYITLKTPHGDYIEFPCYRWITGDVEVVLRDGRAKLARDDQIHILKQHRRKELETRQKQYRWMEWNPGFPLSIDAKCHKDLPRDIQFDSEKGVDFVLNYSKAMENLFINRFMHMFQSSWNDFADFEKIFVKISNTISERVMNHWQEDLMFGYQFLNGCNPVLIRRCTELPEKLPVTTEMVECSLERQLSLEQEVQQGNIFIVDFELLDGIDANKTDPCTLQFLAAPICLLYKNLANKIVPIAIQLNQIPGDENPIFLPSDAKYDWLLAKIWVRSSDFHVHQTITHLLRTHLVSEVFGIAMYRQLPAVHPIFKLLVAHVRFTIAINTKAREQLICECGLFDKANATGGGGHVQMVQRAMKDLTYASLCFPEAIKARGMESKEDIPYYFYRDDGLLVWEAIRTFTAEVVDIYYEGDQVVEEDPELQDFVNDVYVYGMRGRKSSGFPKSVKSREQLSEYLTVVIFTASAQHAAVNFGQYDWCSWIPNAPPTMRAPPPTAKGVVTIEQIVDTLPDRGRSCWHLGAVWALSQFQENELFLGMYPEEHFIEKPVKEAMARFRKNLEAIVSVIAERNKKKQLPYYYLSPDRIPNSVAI
Details: Cabre et al., Inflamm. Res. 1996; cited from earlier work

In the case of `CC1=C(CC/C(C)=C/CCC2=CC[C@H](C3=CC(=O)O[C@H]3O)O[C@H]2O)C(C)(C)CCC1` [manoalide], the lipoxygenase inhibitory properties is given as “no lipoxygenase inhibitory properties”.
